Source: article PMC9598656, “In Vitro Activity of Robenidine Analogues NCL259 and NCL265 against Gram-Negative Pathogens” (Antibiotics, 2022)
Converted amounts (≈) assume the structure as drawn.

Columns and labels:
Format in all cases: cell-based
[1] = system: HEL 299 (non-cancerous human lung fibroblast cell line); experiment: In vitro cytotoxicity, WST-1; details: HEL 299, 24 h
Description: (§1) Potential toxicity of NCL259 and NCL265 to mammalian cells relative to the parent compound (NCL812) was examined using Caco-2 (human colorectal adenocarcinoma cell line), HEL 299 (non-cancerous human lung fibroblast cell line), Hep G2 (human hepatocellular carcinoma cell line), MCF-7 (human mammary gland adenocarcinoma cell line), MDBK (normal Madin–Darby bovine kidney cell line) and Vero (normal adult African green monkey cell line), essentially as described previously. Toxicity to the cell lines was performed using serial two-fold dilutions of each compound from 128 to 1 μg/mL in duplicates in flat bottom 96 well tissue culture trays (Sarstedt 83.3924) containing approximately 2 × 10^4 cells per well in antibiotic-free Dulbecco’s Modified Eagle’s Medium (DMEM; Gibco Cat No: 12430; Thermo Fisher Scientific, Scoresby, VIC, Australia) consisting of 10% (v/v) fetal bovine serum at 37 °C, 5% CO2 for 24 h. Duplicate wells containing ampicillin at 128 to 1 μg/mL were used as controls. Thereafter, 10% (v/v) of the WST-1 cell proliferation assay reagent (Cat No: 05015944001; Roche Life Science, North Ryde, NSW, Australia) was added to each well, the trays were further incubated at 37 °C, 5% CO2 for 1 h and absorbance read at A450nm on a Multiskan Ascent 354 Spectrophotometer (Labsystems, Lilydale, VIC, Australia). The inhibitory concentration of each compound was determined as the half maximal inhibitory concentration (IC50) at A450nm.

[2] = system: Hep G2 (human hepatocellular carcinoma cell line); experiment: In vitro cytotoxicity, WST-1; details: HepG2, 24 h
Description: as §1

[3] = system: MCF-7 (human mammary gland adenocarcinoma cell line); experiment: In vitro cytotoxicity, WST-1; details: MCF7, 24 h
Description: as §1

[4] = system: MDBK (normal Madin–Darby bovine kidney cell line); experiment: In vitro cytotoxicity, WST-1; details: Bos taurus, 24 h
Description: as §1

[5] = system: Vero (normal adult African green monkey cell line); experiment: In vitro cytotoxicity, WST-1; details: Chlorocebus sabaeus, 24 h
Description: as §1

[6] = system: sheep red blood cells (SRBCs); experiment: Hemolysis assay; details: 1 h
Experimental: The haemolytic activity of the compounds was determined using 1% sheep red blood cells (SRBCs), as described previously. […]. After incubation at 37 °C with shaking at 100 rpm for 1 h, the trays were centrifuged at 1000× g for 3 min and 100 μL of supernatant from each well was transferred into a new 96-well tray. Absorbance was measured at A450nm on a Multiskan Ascent 354 Spectrophotometer (Labsystems) and plotted against each dilution. The haemolytic titre (HC50) of each compound was determined as the reciprocal of the dilution at which 50% of SRBCs were lysed at A450nm.

[7] = system: Caco-2 (human colorectal adenocarcinoma cell line); experiment: In vitro cytotoxicity, WST-1; details: Caco-2, 24 h
[8] = first of two independent experiments
[9] = second of two independent experiments

With CC1(C)S[C@@H]2[C@H](NC(=O)[C@H](N)c3ccccc3)C(=O)N2[C@H]1C(=O)O [Ampicillin, reference compound] the IC50 [1, 8] was greater than 128 µg/mL, the IC50 [1, 9] was greater than 128 µg/mL and the IC50 [2, 8] was greater than 128 µg/mL. It also gave an IC50 [2, 9] greater than 128 µg/mL, an IC50 [3, 8] greater than 128 µg/mL and an IC50 [3, 9] greater than 128 µg/mL. It also gave an IC50 [4, 8] greater than 128 µg/mL, an IC50 [4, 9] greater than 128 µg/mL and an IC50 [5, 8] greater than 128 µg/mL. The IC50 [5, 9] was greater than 128 µg/mL, the HC50 ([6]; 1% SRBC, first of two independent experiments) was >128, >128 μg/mL and the HC50 ([6]; 1% SRBC, second of two independent experiments) was >128, >128 μg/mL.

With N=C(N/N=C/c1ccc(Cl)cc1)N/N=C/c1ccc(Cl)cc1 [NCL812, Robenidine] the IC50 [7, 8] was 8 µg/mL (≈ 23.9 µM), the IC50 [7, 9] was 12 µg/mL (≈ 35.9 µM) and the IC50 [1, 8] was 8 µg/mL (≈ 23.9 µM). For the same molecule, the IC50 [1, 9] was 6 µg/mL (≈ 18 µM), the IC50 [2, 8] was 6 µg/mL (≈ 18 µM) and the IC50 [2, 9] was 8 µg/mL (≈ 23.9 µM). For the same molecule, the IC50 [3, 8] was 8 µg/mL (≈ 23.9 µM), the IC50 [3, 9] was 12 µg/mL (≈ 35.9 µM) and the IC50 [4, 8] was 8 µg/mL (≈ 23.9 µM). For the same molecule, the IC50 [4, 9] was 12 µg/mL (≈ 35.9 µM), the IC50 [5, 8] was 8 µg/mL (≈ 23.9 µM) and the IC50 [5, 9] was 4 µg/mL (≈ 12 µM). The HC50 ([6]; sheep) was 32, 32 μg/mL.
